We go through 29 molecules from patent US11479539B2, “Small molecule modulators of the BTB domain of Keap1” (MedImmune Limited, priority 2017, dated 2022).

This assay concerns the target Keap1 (Homo sapiens (Human), UniProt Q14145). The assay can be described thus: HEK293 ARE luciferase assay. The format is cell-based. The conditions noted are these: HEK-293 ARE firefly luciferase transiently transfected cells; 18 h incubation; mean of 1 to 20 individual measurements. From the text:
The purpose of this assay is to identify small molecule inhibitors of Keap1, preventing Keap1 binding to Nrf2, and thus activating the Nrf2 signalling pathway in HEK-293 ARE firefly luciferase transiently transfected cells. HEK-293 cells express wild-type Keap1 protein and therefore have low constitutive levels of Nrf2 protein and Nrf2-dependent transcription. […] When Keap1 is inhibited, Nrf2 signalling is activated, and there is an increase in luciferase expression and light emission.
Cryopreserved HEK ARE luciferase cells were rapidly thawed in a 37° C. water bath and resuspended in assay culture medium (DMEM, 10% FCS, 2 mM L-glutamine). The cell suspension was pelleted by centrifugation ([…]; 300 g) using a Heraeus benchtop centrifuge. Supernatant was removed and the pellet was gently resuspended in 5 mL culture medium per vial. Cell viability and cell number was measured using an Invitrogen Countess automated cell counter (typical viability 80%), and cells were diluted to a density of 5.0×10^5 cells/mL.
Cells were then plated out into white 384-well plates (Greiner 781080) using a Multidrop Combi, 20 μL/well, to give 10,000 cells/well. As appropriate, test compounds had been added to wells prior to dispensing cells using an Echo 555 acoustic dispenser (Labcyte). Plates were left at room temperature for ˜10 min to promote even cell settling across the plate before incubation for 18 h at 37° C., 95% humidity and 5% CO2.
After 18 h incubation, plates were removed from the incubator and allowed to cool to room temperature for 30 min, before 10 μL per well SteadyGlo reagent detection reagent was added (as per manufacturer's instructions, 10 min before required 10 mL room temperature buffer was added to one vial of lyophilised substrate and inverted several times to fully dissolve). Plates were then incubated in the dark for 30 min before reading on an Envision plate reader.
Compounds were acoustically dispensed using a Labcyte Echo, using a 10 pt dose curve with a top concentration of 100 μM. Assay wells were backfilled with DMSO to a total of 60 nL to maintain 0.3% (v/v) DMSO through the assay.
The Stimulator signal was defined using 30 μM tert-butyl hydroquinone (tBHQ) and the Neutral signal by DMSO vehicle control. All calculations were performed using GeneData.
In IBIS Column Calculations, Assay Type was set to ‘Stimulator’, and the Activity Threshold was set to 50.
The mean values were calculated from anywhere from 1 to 20 individual measurements.

Keap1, sequence (Q14145 whole entry): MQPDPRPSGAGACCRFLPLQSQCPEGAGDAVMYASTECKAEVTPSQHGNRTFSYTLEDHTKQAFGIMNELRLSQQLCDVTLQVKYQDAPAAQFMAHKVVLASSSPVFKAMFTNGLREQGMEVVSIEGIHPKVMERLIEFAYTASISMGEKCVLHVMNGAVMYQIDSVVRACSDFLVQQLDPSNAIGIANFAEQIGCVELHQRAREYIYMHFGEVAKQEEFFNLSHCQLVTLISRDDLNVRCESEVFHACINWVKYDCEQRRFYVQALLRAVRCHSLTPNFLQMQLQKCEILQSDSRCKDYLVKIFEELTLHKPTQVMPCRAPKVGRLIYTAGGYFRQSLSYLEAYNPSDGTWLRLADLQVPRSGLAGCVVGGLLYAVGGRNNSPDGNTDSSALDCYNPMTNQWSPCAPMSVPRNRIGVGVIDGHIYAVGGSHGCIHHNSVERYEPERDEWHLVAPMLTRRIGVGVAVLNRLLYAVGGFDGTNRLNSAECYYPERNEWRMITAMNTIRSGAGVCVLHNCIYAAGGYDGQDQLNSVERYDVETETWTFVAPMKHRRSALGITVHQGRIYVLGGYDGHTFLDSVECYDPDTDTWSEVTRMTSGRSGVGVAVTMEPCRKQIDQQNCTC

One may read the EC50 as the concentration at which the effect is half-maximal. Read a high EC50 as weaker potency. On to `COC1(c2ncc(F)cc2-c2cnn3ccccc23)C=C(C#N)C(=O)C(C)(C)C1` (single isomer, unassigned) [Compound 219, 3-[5-fluoro-3-(pyrazolo[1,5-a]pyridin-3-yl)pyridin-2-yl]-3-methoxy-5,5-dimethyl-6-oxocyclohex-1-ene-1-carbonitrile], for which the concentration giving a half-maximal response (EC50) was 0.005 µM. That is a single-digit nanomolar value.
The molecule `COC1(c2cccc(-c3nccs3)n2)C=C(C#N)C(=O)C(C)(C)C1` (centres unmarked) [Compound 125, 3-methoxy-5,5-dimethyl-6-oxo-3-[6-(1,3-thiazol-2-yl)pyridin-2-yl]cyclohex-1-ene-1-carbonitrile] came in with an EC50 of 0.236 µM.
Next, `COC1(c2scnc2C)C=C(C#N)C(=O)C(C)(C)C1` (single isomer, unassigned) [Compound 43, 3-methoxy-5,5-dimethyl-3-(4-methylthiazol-5-yl)-6-oxocyclohex-1-enecarbonitrile]: 0.129 µM.
Next, `COC1(c2ncc(F)cc2-c2sc(C)nc2C)C=C(C#N)C(=O)C(C)(C)C1` (centres unmarked) [Compound 191, 3-[3-(2,4-dimethyl-1,3-thiazol-5-yl)-5-fluoropyridin-2-yl]-3-methoxy-5,5-dimethyl-6-oxocyclohex-1-ene-1-carbonitrile]: 0.012 µM.
Next, `COC1(c2cccc(-c3c(C)noc3C)n2)C=C(C#N)C(=O)C(C)(C)C1` (centres unmarked) [Compound 105, 3-(6-(3,5-dimethylisoxazol-4-yl)pyridin-2-yl)-3-methoxy-5,5-dimethyl-6-oxocyclohex-1-ene-1-carbonitrile]: 0.036 µM.
In the case of `COC1(c2ncccc2C(F)(F)F)C=C(C#N)C(=O)C2(CCCC2)C1` (single isomer, unassigned) [Compound 66, 9-methoxy-6-oxo-9-[3-(trifluoromethyl)pyridin-2-yl]spiro[4.5]dec-7-ene-7-carbonitrile], the EC50 was determined as 0.126 µM.
Next, `COC1(c2cccc(-c3ccnn3C)n2)C=C(C#N)C(=O)C2(CC2)C1` (single isomer, unassigned) [Compound 53, 7-methoxy-7-(6-(1-methyl-1H-pyrazol-5-yl)pyridin-2-yl)-4-oxospiro[2.5]oct-5-ene-5-carbonitrile]: 0.133 µM.
The molecule `COC1(c2cccc(-c3cnn(C)c3)n2)C=C(C#N)C(=O)C(C)(C)C1` (single isomer, unassigned) [Compound 107, 3-methoxy-5,5-dimethyl-3-(6-(1-methyl-1H-pyrazol-4-yl)pyridin-2-yl)-6-oxocyclohex-1-ene-1-carbonitrile] had an EC50 of 0.037 µM.
Next, `COc1ccccc1-c1cccc(C2(OC)C=C(C#N)C(=O)C(C)(C)C2)n1` (centres unmarked) [Compound 120, 3-methoxy-3-[6-(2-methoxyphenyl)pyridin-2-yl]-5,5-dimethyl-6-oxocyclohex-1-ene-1-carbonitrile]: 0.245 µM.
Next, `COC1(c2ncc(F)cc2-c2ccc(C(F)(F)F)nc2)C=C(C#N)C(=O)C(C)(C)C1` (single isomer, unassigned) [Compound 90, 3-[5-fluoro-3-[6-(trifluoromethyl)-3-pyridyl]-2-pyridyl]-3-methoxy-5,5-dimethyl-6-oxo-cyclohexene-1-carbonitrile]: 0.011 µM; `COC1(c2cccc(-n3ccnc3C)n2)C=C(C#N)C(=O)C(C)(C)C1` (centres unmarked) [Compound 12, 3-methoxy-5,5-dimethyl-3-[6-(2-methylimidazol-1-yl)-2-pyridyl]-6-oxo-cyclohexene-1-carbonitrile]: 0.119 µM; `[2H]C([2H])([2H])OC1(c2cccc(-c3cnn(C)c3)n2)C=C(C#N)C(=O)C(C)(C)C1` (single isomer, unassigned) [Compound 14, 5,5-Dimethyl-3-[6-(1-methylpyrazol-4-yl)-2-pyridyl]-6-oxo-3-(trideuterio-methoxy)cyclohexene-1-carbonitrile]: 0.012 µM.
Next, `COC1(c2ncc(F)cn2)C=C(C#N)C(=O)C(C)(C)C1` (single isomer, unassigned) [Compound 216, 3-(5-fluoropyrimidin-2-yl)-3-methoxy-5,5-dimethyl-6-oxocyclohex-1-ene-1-carbonitrile]: 0.021 µM; `COC1(c2ccc(Cl)cn2)C=C(C#N)C(=O)C2(CC2)C1` (centres unmarked) [Compound 65, 7-(5-chloropyridin-2-yl)-7-methoxy-4-oxospiro[2.5]oct-5-ene-5-carbonitrile]: 0.247 µM; `COC1(c2ncc(F)cc2-c2cnn(-c3ccccc3)c2)C=C(C#N)C(=O)C(C)(C)C1` (single isomer, unassigned) [Compound 81, 3-[5-fluoro-3-(1-phenylpyrazol-4-yl)-2-pyridyl]-3-methoxy-5,5-dimethyl-6-oxo-cyclohexene-1-carbonitrile]: 0.002 µM.
`COC1(c2ncc(F)cc2F)C=C(C#N)C(=O)C(C)(C)C1` (single isomer, unassigned) [Compound 44, 3-(3,5-difluoropyridin-2-yl)-3-methoxy-5,5-dimethyl-6-oxocyclohex-1-enecarbonitrile] yielded an EC50 of 0.037 µM.
Next, `CO[C@]1(c2ncc(F)cc2-c2ccns2)C=C(C#N)C(=O)C(C)(C)C1` [Compound 80, (S)-3-(5-fluoro-3-isothiazol-5-yl-2-pyridyl)-3-methoxy-5,5-dimethyl-6-oxo-cyclohexene-1-carbonitrile]: 0.002 µM.
Next, `COC1(c2cccc(Br)n2)C=C(C#N)C(=O)C(C)(C)C1` (centres unmarked) [Compound 2, 3-(6-bromo-2-pyridyl)-3-methoxy-5,5-dimethyl-6-oxo-cyclohexene-1-carbonitrile]: 0.228 µM; `COc1ncc(C)cc1-c1cc(F)cnc1C1(OC)C=C(C#N)C(=O)C(C)(C)C1` (single isomer, unassigned) [Compound 234, 3-(5-fluoro-2′-methoxy-5′-methyl[3,3′-bipyridin]-2-yl)-3-methoxy-5,5-dimethyl-6-oxocyclohex-1-ene-1-carbonitrile]: 0.009 µM.
Next, `COC1(c2cccc(-c3cccnc3)n2)C=C(C#N)C(=O)C(C)(C)C1` (centres unmarked) [Compound 116, 3-([2,3′-bipyridin]-6-yl)-3-methoxy-5,5-dimethyl-6-oxocyclohex-1-ene-1-carbonitrile]: 0.382 µM.
Consider `COC1(c2ncc(C)s2)C=C(C#N)C(=O)C2(CC2)C1` (centres unmarked) [Compound 64, 7-methoxy-7-(5-methyl-1,3-thiazol-2-yl)-4-oxospiro[2.5]oct-5-ene-5-carbonitrile], for which a half-maximal effect (EC50) was put at 0.145 µM.
Next, `COC1(c2cc(-c3cnn(C)c3)ccn2)C=C(C#N)C(=O)C(C)(C)C1` (centres unmarked) [Compound 112, 3-methoxy-5,5-dimethyl-3-[4-(1-methyl-1H-pyrazol-4-yl)pyridin-2-yl]-6-oxocyclohex-1-ene-1-carbonitrile]: 0.371 µM.
Next, `COC1(c2ncc(F)cc2-c2ccc3ccnn3c2)C=C(C#N)C(=O)C(C)(C)C1` (single isomer, unassigned) [Compound 203, 3-[5-fluoro-3-(pyrazolo[1,5-a]pyridin-6-yl)pyridin-2-yl]-3-methoxy-5,5-dimethyl-6-oxocyclohex-1-ene-1-carbonitrile]: 0.006 µM; `COC1(c2ncc(F)cc2-c2cn(C)nc2C)C=C(C#N)C(=O)C(C)(C)C1` (single isomer, unassigned) [Compound 78, 3-[3-(1,3-dimethylpyrazol-4-yl)-5-fluoro-2-pyridyl]-3-methoxy-5,5-dimethyl-6-oxo-cyclohexene-1-carbonitrile]: 0.002 µM; `COC1(c2scnc2C)C=C(C#N)C(=O)C(C)(C)C1` (centres unmarked) [Compound 150, 3-methoxy-5,5-dimethyl-3-(4-methyl-1,3-thiazol-5-yl)-6-oxocyclohex-1-ene-1-carbonitrile]: 0.147 µM.
Next, `COC1(c2ncccc2C(F)(F)F)C=C(C#N)C(=O)C2(CCCC2)C1` (centres unmarked) [Compound 148, 9-methoxy-6-oxo-9-[3-(trifluoromethyl)pyridin-2-yl]spiro[4.5]dec-7-ene-7-carbonitrile]: 0.252 µM; `COC1(c2ncc(F)cc2C)C=C(C#N)C(=O)C(C)(C)C1` (centres unmarked) [Compound 137, 3-(5-fluoro-3-methylpyridin-2-yl)-3-methoxy-5,5-dimethyl-6-oxocyclohex-1-ene-1-carbonitrile]: 0.047 µM.
`COC1(c2ncc(F)cc2-c2ccnnc2)C=C(C#N)C(=O)C(C)(C)C1` (single isomer, unassigned) [Compound 220, 3-[5-fluoro-3-(pyridazin-4-yl)pyridin-2-yl]-3-methoxy-5,5-dimethyl-6-oxocyclohex-1-ene-1-carbonitrile] gave an EC50 of 0.01 µM.
Molecule `COC1(c2ccc(F)cn2)C=C(C#N)C(=O)C(C)(C)C1` (single isomer, unassigned) [Compound 27, 3-(5-fluoropyridin-2-yl)-3-methoxy-5,5-dimethyl-6-oxocyclohex-1-enecarbonitrile] registered an EC50 of 0.18 µM.
